Data set [1] in a line: RP-HPLC retention time as measure of hydrophobicity. The data set is classed as physicochemical. The following applies: chromatographic, Vydac C18 300 Å 4.6 × 250 mm, 1.0 mL/min, gradient 30-100% acetonitrile/0.1% TFA, 215 nm, column 25 ± 5 °C; maximum height of peak. The protocol: Peptides were synthesized using the Fmoc SPPS methods. Briefly, the peptide LVTX-9 (AC-[…]-amide) was prepared on Rink Amide AM resin at a 0.2 mmol scale. A 4-fold excess of the Fmoc-protected amino acids was coupled with the Rink Amide AM resin using HCTU and HOBT as the activating agents in 5% NMM/DMF. After the synthesis of LVTX-9, the N-terminal Fmoc group was removed using 20% piperidine. As in the previous steps, a series of fatty acids (C12-C20) was activated in HCTU and HOBT using 5% NMM/DMF, and coupled to peptidyl resin for 2 h. Peptides were cleaved using trifluoroacetic acid (TFA)/thioanisole (TIS)/anisole (95:3:2 (v/v)) for 2.5 h, and the collected lysate was precipitated in cold diethyl ether three times. The precipitate was air-dried naturally. Next, the obtained crude products were purified using RP-HPLC (C18, 4.6 mm × 250 mm) on the basis of a 0.1% TFA/acetonitrile gradient from 30% to 100% in 46 min. Then, we collected the eluted peptides and determined the molecular mass using MALDI-TOF MS (AB, SCIEX, Waltham, MA, USA).
Figure 2 Purification and identification of five lipopeptides using RP-HPLC and MALDL-TOF MS: The purification of (A) LVTX-9-C12, (B) LVTX-9-C14, (C) LVTX-9-C16, (D) LVTX-9-C18, and (E) LVTX-9-C20 was performed using RP-HPLC (column, Vydac, C18, 300 Å, 4.6 × 250 mm). The lipopeptides were separated at a flow rate of 1.0 mL/min under a gradient of 30–100% acetonitrile/0.1% TFA. The elution of lipopeptides was monitored at 215 nm. Identification of (F) LVTX-9-C12, (G) LVTX-9-C14, (H) LVTX-9-C16, (I) LVTX-9-C18, and (J) LVTX-9-C20 by MALDI-TOF MS, respectively. The red star (*) represents the target peak. […]
Table S1. Purification gradient of peptides.
Time (min) Flow Rate (mL/min) A% B%
Wavelength: 215 nm/280 nm, column temperature: 25 ± 5 ℃, A: ddH2O (0.1% TFA), B: acetonitrile
(1 picture or pasted object on this page, not shown here)

The test system of data set [2] is B16-F10 cells. Description: Scanning electron microscopy of cell membrane. The data set is classed as cell-based, mouse. To be noted: 50 μM, 24 h. The protocol:
The morphologic changes of the cell membrane of B16-F10 cells treated with peptides were observed by SEM [14]. The cells were seeded on coverslips and placed into a six-well plate, then treated with LVTX-9 (50 μM) and LVTX-9-C18 (5 μM) for 24 h. After incubation, the B16-F10 cells were washed with sterile PBS gently three times and fixed with 2 mL of 2.5% glutaraldehyde solution in each well for 4 h at room temperature. Then, the fixed cells were dehydrated with a series of ethanol concentrations. We dried the samples with a Critical Point Dryer and coated them with gold plating before observation. A scanning electron microscope (Hitachi Su8010, Tokyo, Japan) was used to examine the prepared samples.

Data set [3] deals with B16-F10 cells. Description: Colony formation assay. The data set is classed as cell-based, mouse. The following applies: 10 μM, 7 days, crystal violet, mean ± SD, n = 3, control group 51 ± 12.0. The procedure: To detect the proliferation of B16-F10 cells treated with LVTX-9 and LVTX-9-C18 at low concentrations, digested cells were counted using a Cellometer K2 and seeded into a 12-well plate with approximately 100 cells per well. After 36 h, cells were treated with LVTX-9 (10 μM) and LVTX-9-C18 (1 μM), then incubated for 7 days at 37 °C in a humidified 5% CO2 atmosphere. Visible colonies were stained with 0.5% crystal violet and photographically recorded. The colony formation rates were calculated, and curves were manufactured by GraphPad prism 5.0.

A further data set has as its system B16-F10 tumor spheroids. The data set can be described thus: Toxicity in 3D tumor spheroids. The data set is classed as cell-based, mouse. The following applies: 50 or 25 μM, RPMI-1640 with 10% serum, 3 days. The protocol: To further study the toxicity of LVTX-9 and LVTX-9-C18 in vitro, B16-F10 tumor spheroids, as 3D tumor models, were cultured according to protocols in the literature. Briefly, B16-F10 cells were seeded into an ultra-low attachment, 96-well, round-bottom plate (Corning) and cultured at 37 °C for 3–4 days. Then, the B16-F10 tumor spheroids were treated with 50 or 25 μM of LVTX-9 and 20 or 10 μM of LVTX-9-C18 in the RPMI-1640 supplied with 10% serum for 3 days. Subsequently, images were taken on days 0 and 3, and the cell viability was measured using a CellTiter-Glo 3D Cell Viability Assay (G9683).

In data set [4] the test system is B16-F10 cells. The data set can be described thus: Trypan blue staining. To be noted: 50 μM, 24 h, 0.04% trypan blue 4 min. The data set is classed as cell-based, mouse. The protocol: B16-F10 cells were seeded into a 48-well plate (2 × 10^3 cells/well) for 24 h and treated with LVTX-9 (50 μM) and LVTX-9-C18 (5 μM) for 24 h. The cells were washed with PBS gently and stained with 0.04% Trypan blue for 4 min. Dead cells were stained blue.

The test system of data set [5] is B16-F10 cells. Description: CCK-8 cell viability assay, B16-F10 cells. The data set is classed as cell-based, mouse. The following applies: 50 μM, 24 h of treatment, serum-free medium (Figure 3B). The procedure: Mouse skin melanoma cells (B16-F10) were cultured in RPMI-1640 (Gibco), and mouse fibroblast cells (L-929), human lung carcinoma cells (A549), mouse breast cells (4T1), human hepatocarcinoma cells (HepG2), and human cervical carcinoma cells (Hela) were cultured in Dulbecco’s Modified Eagle Medium (DMEM, Gibco). All culture medium contained 10% fetal bovine serum (serum, Gibco), 100 U/mL of penicillin, and […] of streptomycin at 37 °C with 5% CO2.
Cell viability was quantified using a CCK-8 assay. At first, cells were seeded into a 96-well plate at approximately 2 × 10^3 cells/well. The following day, we created a 2-fold dilution series of each peptide using fresh medium (with or without 10% serum) for the treated cells, and cell viability was detected at 450 nm via a CCK-8 assay using an Absorbance Microplate Reader (BioTek Instruments, Winooski, VT, USA) following 24 h of drug incubation. The activity curves and IC50 values of the peptides were visualized using GraphPad prism 5.0.

Where no end group is shown, it is not given here.

Turning to “ASIGALIQKAIALIKAKAA-NH2 (C-terminus assumed) [LVTX-9]”, in data set [1], the “TR (retention time, RP-HPLC; indicates the hydrophobicity of the peptides)” value is given as 15.21 min. Besides, the “cell membrane morphology by SEM at 50 μM” value with B16-F10 cells [2] was “intact membranes with smooth surfaces”. Besides, the “colony number at 10 μM” value with B16-F10 cells [3] worked out at 58 ± 11.4. Moreover, the “growth of B16-F10 tumor spheroids at 50 or 25 μM” value in the data set with B16-F10 tumor spheroids is recorded as “gradually grew”. For the same substance, the “trypan blue staining at 50 μM” value in the data set with B16-F10 cells [4] is on record as “almost unstained”. For the same substance, the “effect on cell viability at 50 μM” value in the data set with B16-F10 cells [5] is “no significant effect on cell viability”.
